These results are taken from patent publication US20230413808A1, “Bioactive complexes” (priority 2020, published 2023).

Data set [1] is described as follows: Visual interaction of active ingredient with polyelectrolyte PAA. The class given is physicochemical. The protocol:
To determine interaction between polyelectrolytes (PE; Table 1) and active ingredients (AI; Table 2) aqueous stock solutions of about 200 g/L of the PE and of the active ingredients were prepared. The polyelectrolytes were diluted in water and stirred on magnetic stirrer for at least 30 minutes until a homogenous clear solution was obtained (ratios and amounts are presented in Table 4). The active ingredients were dissolved in water on magnetic stirrer or, if they weren't water soluble, suspended in water and milled by adding glass beads (1 mm) in a stainless steel metal beaker until they reach a volume-based average particle size below 20 μm (90% of particles below 20 μm), as determined by laser diffraction. After that the mixture was filtered with a sieve to remove glass beads and the filtrate was used for further analysis.
A polyelectrolyte solution, PAA or chitosan, was added to a 100-150 mL glass beaker, followed by water and an active ingredient solution/suspension. The mixture was stirred for at least 4 hours, and samples were observed after at least 16 hours. The visual observable interactions were divided into five categories (see Table 3). The categories were chosen by comparison to a blank sample containing the same concentration of active ingredient in water but without polyelectrolyte. […] Interactions were studied over a large range of active ingredient to polyelectrolyte ratios, including 10.000:1 (w/w), 1000:1 (w/w), 100:1 (w/w), 10:1 (w/w), 1:1 (w/w), 1:10 (w/w), 1:100 (w/w) and 1:1000) (w/w).

Data set [2] in a line: Visual interaction with polyanion sodium lignosulfonate. The class given is physicochemical. The conditions noted are these: visible complex formation.
The next data set can be described thus: Humectancy assay. Format: physicochemical. The conditions noted are these: dried at 54° C., then 97% relative humidity at 25° C.; weight after/before x 100. The protocol:
The complexes of the interaction assay were used to conduct a humectancy assay. […] After reweighing on an analytical balance, the trays were placed in a climate chamber and stored for at least 2 days at 54° C. or until no further weight change was observed. […] The air tight box was 20 cm×12 cm×7 cm. In the box a chicken wire construct was used to create two levels with 10-20 ml of saturated solution of dipotassium sulfate in a petri dish in a lower level, and the samples in an upper level. Boxes were located into an incubator at 25° C. The boxes were incubated for at least 5 days at 25° C. before use to allow equilibration of temperature and humidity. Hereafter, the trays were reweighed.
The change in humectancy by combining a pesticide and polyelectrolyte is expressed as percent value by multiplying the sample weight after incubation (w2) with 100 divided with the sample weight before incubation (w1) using the following equation: […]
To evaluate the effect of the interaction of the active ingredient and polyelectrolyte on humectancy (synergetic/antagonistic/no effect), the determined Humectancy of the samples containing both active ingredient and polyelectrolyte “Humectancy (blend)” was divided by the theoretical value of Humectancy of the blend provided by respective proportion (% AI; % PE) of each pesticide and polyelectrolyte using the following equation: […]
According to this formula, a positive result of more than 1 is indicative of synergy.
The complexes obtained with the method of WO2010035118, with both ratios of 2:1 and 1:5 (PAA:AI) were tested for humectancy. […] For each sample, the test was carried in triplicate.
For each sample, the test was carried in triplicate.

Data set [3] deals with Trifolium repens (Clover). In words: Herbicide efficacy of glyphosate on clover. Format: in vivo. From the text: (§1) The efficacy of glyphosate is often sub-optimal because after drying of the glyphosate active ingredient on the plant tissue the rate of uptake is reduced (dry glyphosate is taken up poorly by the plant tissue). A complex of glyphosate-polycation with improved humectancy properties will remain longer as a wet film on the plant tissue, thereby enhancing uptake of glyphosate in the plant tissue and enhancing its herbicidal activity. In this experiment the effect of a formed complex on efficacy of glyphosate was assessed. The experiment was performed with hard water (500 ppm CaCO3) and with soft water (50 ppm CaCO3).
(§2) The following method was used. Seeds of rye grass and clover were sown in 2 L plastic pots (10 seeds pot) and grown in Lentse Potgrond (Horticoop; Bleiswijk, the Netherlands) in a greenhouse at 22° C. and at light 16 h and dark 8 h, humidity 75%. The experiment was carried out with 2 pots (replications) per treatment. The pots were watered as to keep the plants growing optimal. At the four-five leaf stage, when plants reached a height of 15-20 cm, they were sprayed with the glyphosate treatments with and without PAA (formulations: see Table 12). The spray was such that the plants were wetted completely and uniform. 12 days after the glyphosate treatments, the fresh weight and dry weight of the parts of the plants that were above ground were measured (grams). For dry weight, plants were first dried in an oven at 67 degree Celsius for 48 hours and weight was measured.
(§3) With the method described above rye grass plants were sprayed with two glyphosate formulations: • A. 2700 ppm glyphosate plus 270 ppm complexed with PAA at a 10:1 ratio (glyphosate:PAA; w/w) (formulation see Table 12). • B. 2700 ppm glyphosate without PAA (formulation, see Table 12).

The subject of data set [4] is Lolium perenne (Ryegrass). In words: Herbicide efficacy of glyphosate on rye grass. Format: in vivo. The note with it: for Extra reduction in dry weight: complex formation with PAA vs without PAA, first statement of b170; for Extra reduction in dry weight (second statement): second statement of b170.
From the text: as §1, §2, §3

Where [5] appears, read: soft water, complex formation with PAA vs without PAA.

Structures are written as SMILES.

In the case of `O=C(O)CNCP(=O)(O)O` [Glyphosate, N-(phosphonomethyl)glycine], the “Visual observation category, Active ingredient: PAA” value in data set [1] (ratio active ingredient:PAA 1.000:1 (w/w)), in data set [1] (ratio active ingredient:PAA 1:1 (w/w)), in data set [1] (ratio active ingredient:PAA 1:10 (w/w)), in data set [1] (ratio active ingredient:PAA 1:100 (w/w)), in data set [1] (ratio active ingredient:PAA 1:1000 (w/w)) and in data set [1] (ratio active ingredient:PAA 10.000:1 (w/w)) was “N” in each case. Besides, the “Interaction with the polyanion sodium lignosulfonate” value in data set [2] was “did not form a visible complex”. For the same compound, the Humectancy in “Humectancy assay” is 231.3%. For the same compound, the “Extra reduction in dry weight” value in data set [3] (hard water, complex formation with PAA (Formulation A) vs without PAA (Formulation B)) worked out at 74%; in data set [3] (setting [5]) it was 47%; in data set [4] (hard water), 56%; in data set [4] (soft water) it was 44%. For the same compound, the “Extra reduction in fresh weight” value in data set [3] (hard water, complex formation with PAA vs without PAA) was 38%; in data set [3] (setting [5]), 44%. Also, the figures for the “Extra reduction in dry weight (second statement)” value in data set [4] (hard water) and in data set [4] (soft water) were 48% and 46%, respectively.
